From patent US9433217B2, “Methods and compositions for introduction of exogenous dsRNA into plant cells” (Syngenta Participations AG, priority 2011, dated 2016)

Key:
Format in all cases: in vivo
[1] = system: maize glutamine synthetase; experiment: Silencing of maize glutamine synthetase, qPCR of leaf samples and phenotype; conditions: dsRNA treated maize plants, 2-3 weeks after treatment
Description: The Zma-GS dsRNA molecule (SEQ ID NO 7:SEQ ID NO 8) used in this embodiment is a double stranded RNA version of SEQ ID NO 2. Methods for formulation of dsRNA and control solutions, plant growth conditions, and application of RNAi formulation were as described in the above example, with the exception that another control formulation was added with only Brassinosteroid at 0.1 micromolar.
Results were evaluated from leaf samples taken 2-3 weeks after treatment. Four plants were examined from each treatment group. […] Since glutamine synthetase is a natively expressed gene, qPCR analysis was performed to calculate silencing efficiency. qPCR was performed using the Applied Biosystems 7900HT Fast Real-Time PCR System. Silencing efficiency was calculated according to the publication Analysis of Relative Gene Expression Data Using Real-Time Quantitative PCR and the 2^−ΔΔCt Method. Methods (2001) 25:402-408.

NtPDS transcript = experiment: Silencing of NtPDS transcript in tobacco, qPCR and phenotype; conditions: leaves of dsRNA treated tobacco plants
Description: The tobacco gene encoding phytoene desaturase was evaluated for silencing using dsRNA constructs in combination with BR. […] The NtPDS dsRNA molecule (SEQ ID NO 10:SEQ ID NO 11) used in this embodiment is a double stranded RNA version of SEQ ID NO 4.
Similar to Example 3, once germinated and grown for 3-4 weeks, three tobacco plants were chosen for treatment for either the dsRNA or the control formulation. Here, the control formulation contained BR and water alone. […] As in Examples 2 and 3, the silencing efficiencies were calculated and are shown in the table below, where dsPDS is dsRNA from NtPDS.

NtFtsH transcript = experiment: Silencing of NtFtsH transcript in tobacco, qPCR and phenotype; conditions: leaves of dsRNA treated tobacco plants
Description: The tobacco gene encoding Filamentation temperature-sensitive H (NtFtsH) protease was evaluated for silencing using dsRNA constructs in combination with BR. […] The NtFtsH protease dsRNA molecule (SEQ ID NO 9:SEQ ID NO 10) used in this embodiment is a double stranded version of SEQ ID NO. 3.
Once germinated, tobacco plants were transplanted to new soil and grown for an additional 3-4 weeks. Three tobacco plants were chosen for treatment for either the dsRNA or the control formulation. The treatments were applied using methods similar to those described in Example 2. Here, the control formulation contained ZsGreen dsRNA. […] As in Example 2, the silencing efficiencies were calculated and are shown in the table below, where dsNtFtsH is dsRNA from NtFtsH protease and dsZsGreen is the dsRNA of ZsGreen: […]

Molecule: dsGS: Zma-GS dsRNA (SEQ ID NO 7:SEQ ID NO 8), double stranded RNA version of SEQ ID NO 2
- phenotype [1]: bleaching was observed

Molecule: dsPDS: NtPDS dsRNA, double stranded RNA version of SEQ ID NO 4
- phenotype (NtPDS transcript): bleaching phenotype was observed

B1: dsNtFtsH: NtFtsH protease dsRNA (SEQ ID NO 9:SEQ ID NO 10), double stranded version of SEQ ID NO. 3 (nucleic acid, listed as Nicotiana tabacum)
chain 1: CAAAUGGCAGUUGCACUUGGUGAAAGGGUUGCUGAGGAGGUUAUUUUUGGACAAGAUAACGUAACAACUGGGGCAUCUAACGAUUUCAUGCAAGUUUCACGAGUGGCAAGGCAGAUGGUUGAGAGAUUAGGGUUCAGCAAAAAGAUUGGACAAGUUGCCAUUGGAGGAGGUGGAGGAAAUCCUUUCCUAGGUCAACAGAUGUCAACCCAGAAAGACUACUCCAUGGCUACAGCCGAUGUGGUUGAUGCUGAAGUAAGGGAAUUGGUUGAAAGAGCAUAUGAAAGGGCAACAGAGAUUAUCACAACACACAUUGACAUCCUACACAAGCUUGCUCAGCUGUUGAUAGAGAAAGAAACUGUUGAUGGUGAAGAGUUCAUGAGCCUUUUCAUCGAUGG
chain 2: GUUUACCGUCAACGUGAACCACUUUCCCAACGACUCCUCCAAUAAAAACCUGUUCUAUUGCAUUGUUGACCCCGUAGAUUGCUAAAGUACGUUCAAAGUGCUCACCGUUCCGUCUACCAACUCUCUAAUCCCAAGUCGUUUUUCUAACCUGUUCAACGGUAACCUCCUCCACCUCCUUUAGGAAAGGAUCCAGUUGUCUACAGUUGGGUCUUUCUGAUGAGGUACCGAUGUCGGCUACACCAACUACGACUUCAUUCCCUUAACCAACUUUCUCGUAUACUUUCCCGUUGUCUCUAAUAGUGUUGUGUGUAACUGUAGGAUGUGUUCGAACGAGUCGACAACUAUCUCUUUCUUUGACAACUACCACUUCUCAAGUACUCGGAAAAGUAGCUACC
modifications: Sense strand of SEQIDNO3 (1)..(395); Complement of SEQIDNO9 (1)..(395)
- phenotype (NtFtsH transcript): bleaching phenotype was observed
